Reference: PMC10734772 (Turkish Journal of Chemistry, 2021)

Legend:
Assay type in all cases: cell-based
Jurkat = assay: MTT assay, Jurkat cells; settings: Homo sapiens, 24 h, read-out: Viability rate
Method: (§1) K562, Jurkat, Molt-4, and Nalm-6 cell lines were cultured in RPMI-1640 medium (ECM2001, Euroclone), Reh cell line was cultured in DMEM medium (LM-D1111-Biosera) Hek293T cell line was cultured in IMDM medium (AL070A - HiMedia) supplemented with 10% heat-inactivated fetal bovine serum (F7524-Merck & Co., USA,) penicillin and streptomycin (P4333-Sigma Aldrich). K562, Jurkat and Molt-4 cell lines were seeded as 4x10^5/ml, Reh and Nalm-6 cell lines were seeded 5x10^5/ml, Hek293T cell line was seed as 2x10^5/ml. All cells were incubated at 5% CO2 and 37 °C. All cell lines were kindly provided by Dr. M. Sayitoglu and Dr. Ö. Hatirnaz-Ng from Acibadem University.
(§2) MTT assay is a 3-day test. On the first day, cell count was performed in Bio Rad TC-20 device with the help of trypan blue, each cell line was prepared by diluting to the specified concentrations and seeded in a 96-well plate as 100μL to each well and incubated for 1 day.
(§3) Each compound was solved in DMSO, their stock solutions (33.3, 10, 5, 1 mM, and 300 μM) were prepared by diluting with the same solvent and they were stored under −20°C when they were not used.
(§4) On the second day, stock solutions were subsequently diluted to various concentrations (0.3–200 μM) with related medium prior to experiments. Specified concentrations of the compounds were seeded in a 96-well plate as 100μL to each well and incubated for 24 h.
(§5) After incubation (on the third day), to precipitate leukemia cells, the cell plate was centrifuged at 1500 rpm for 5 min. Then, 100 μL of supernatant was removed from each well carefully and 10 μl of MTT solution (5 mg/mL) was added to each well and incubated at 37 °C for 4 h. The 50 μl of supernatant was discarded from each well and 100 μl of DMSO was added to dissolve the formazan. Plates were shaken for 45 min to dissolve the dye. Then the optical density of each well was measured by using Thermo VarioSkan Flush Multimode Reader Quantum ST5-1100 at 570 nm wavelength.
(§6) Subsequently, viability rate of the cells at each concentration, as percentage, was determined by following formula (1):
(§7) Viability rate (%)=100-[(OD(control)-OD(sample))/OD(control)×100].OD=Optical Density
(§8) The IC50 values were calculated by using GraphPad Prism. All the data presented as the mean of 6 replicates. Results were analyzed and illustrated with Graph Pad Prism (version 5; GraphPad Software, San Diego, CA, USA). Statistical analysis was performed using dose-response inhibition, log(inhibitor) vs response-variable slope, least squares (ordinary) fit.
(§9) To evaluate in-vitro anti-cancer activity of the newly synthesized compounds, they were tested by using the MTT assay in the BCR-ABL positive leukemic cell line (K562), BCR-ABL negative leukemic cell lines (Nalm-6, Molt-4, Reh and Jurkat), and non-leukemic human embryonic kidney tissue (Hek293T) cell line. […] The viability rate of each concentration was calculated by the formula stated in material and methods, the viability rate results for each cell were presented in Table S2 and Figure S44.

K562 = assay: MTT assay, K562 cells; settings: Homo sapiens, 24 h, MTT, read-out: Viability rate
Molt-4 = assay: MTT assay, Molt-4 cells; settings: Homo sapiens, MOLT-4, 24 h, read-out: Viability rate
Method: as §1, §2, §3, §4, §5, §6, §7, §8, §9

[1] = MTT assay, Hek293T non-leukemic control cells; settings: human, read-out: Viability rate
Method: as §1, §2, §3, §4, §5, §6, §7, §8, §9

Reh = assay: MTT assay, Reh cells; settings: Homo sapiens, 24 h, read-out: Viability rate
Method: as §1, §2, §3, §4, §5, §6, §7, §8, §9

Nalm-6 = assay: MTT assay, Nalm-6 cells; settings: Homo sapiens, 24 h, MTT, read-out: Viability rate

Cc1ccc(NC(=O)c2ccc(CN3CCN(C)CC3)cc2)cc1Nc1nccc(-c2cccnc2)n1 [imatinib, reference compound]
viability at 0.3 µM (Jurkat; 0.3 μM): 68.4 ± 0.12% | viability at 0.5 µM (Jurkat; 0.5 μM): 63.9 ± 0.03% | viability at 1 µM (Jurkat; 1 μM): 61.5 ± 0.07% | viability at 3 µM (Jurkat; 3 μM): 61.3 ± 0.05% | viability at 5 µM (Jurkat; 5 μM): 60.7 ± 0.08% | viability at 10 µM (Jurkat; 10 μM): 60.6 ± 0.14% | viability at 15 µM (Jurkat; 15 μM): 57.9 ± 0.05% | viability at 20 µM (Jurkat; 20 μM): 46.8 ± 0.05% | viability at 30 µM (Jurkat; 30 μM): 34.5 ± 0.04% | viability at 50 µM (Jurkat; 50 μM): 26.2 ± 0.05% | viability at 70 µM (Jurkat; 70 μM): 17.8 ± 0.02% | viability at 100 µM (Jurkat; 100 μM): 17.5 ± 0.01% | viability at 150 µM (Jurkat; 150 μM): 17.3 ± 0.01% | viability at 200 µM (Jurkat; 200 μM): 16.6% | viability at 0.3 µM (K562; K562, 0.3 μM): 98 ± 0.03% | viability at 0.5 µM (K562; K562, 0.5 μM): 97.4 ± 0.06% | viability at 1 µM (K562; K562, 1 μM): 95.4 ± 0.07% | viability at 3 µM (K562; K562, 3 μM): 95.3 ± 0.05% | viability at 5 µM (K562; K562, 5 μM): 95.4 ± 0.09% | viability at 10 µM (K562; K562, 10 μM): 94.8 ± 0.09% | viability at 15 µM (K562; K562, 15 μM): 88.5 ± 0.1% | viability at 20 µM (K562; K562, 20 μM): 87 ± 0.04% | viability at 30 µM (K562; K562, 30 μM): 72.8 ± 0.06% | viability at 50 µM (K562; K562, 50 μM): 60.8 ± 0.1% | viability at 70 µM (K562; K562, 70 μM): 60 ± 0.07% | viability at 100 µM (K562; K562, 100 μM): 51.3 ± 0.05% | viability at 150 µM (K562; K562, 150 μM): 35.1 ± 0.01% | viability at 200 µM (K562; K562, 200 μM): 29.7% | viability at 0.3 µM (Molt-4; Molt-4, 0.3 μM): 75.6 ± 0.18% | viability at 0.5 µM (Molt-4; Molt-4, 0.5 μM): 74.9 ± 0.18% | viability at 1 µM (Molt-4; Molt-4, 1 μM): 75.1 ± 0.19% | viability at 3 µM (Molt-4; Molt-4, 3 μM): 73.8 ± 0.17% | viability at 5 µM (Molt-4; Molt-4, 5 μM): 72.7 ± 0.25% | viability at 10 µM (Molt-4; Molt-4, 10 μM): 70.7 ± 0.21% | viability at 15 µM (Molt-4; Molt-4, 15 μM): 70.2 ± 0.1% | viability at 20 µM (Molt-4; Molt-4, 20 μM): 63.4 ± 0.1% | viability at 30 µM (Molt-4; Molt-4, 30 μM): 63.3 ± 0.06% | viability at 50 µM (Molt-4; Molt-4, 50 μM): 55.5 ± 0.05% | viability at 70 µM (Molt-4; Molt-4, 70 μM): 52.1 ± 0.1% | viability at 100 µM (Molt-4; Molt-4, 100 μM): 41.2 ± 0.06% | viability at 150 µM (Molt-4; Molt-4, 150 μM): 29.8 ± 0.04% | viability at 200 µM (Molt-4; Molt-4, 200 μM): 20.3 ± 0.02% | viability at 24 h, 0.3 µM ([1]; Hek293T cells (non-leukemic control cell line), 0.3 μM): 83.4 ± 0.02% | viability at 24 h, 0.5 µM ([1]; Hek293T cells (non-leukemic control cell line), 0.5 μM): 78.6 ± 0.04% | viability at 24 h, 3 µM ([1]; Hek293T cells (non-leukemic control cell line), 3 μM): 73.1 ± 0.03% | viability at 24 h, 5 µM ([1]; Hek293T cells (non-leukemic control cell line), 5 μM): 71.5 ± 0.02% | viability at 24 h, 10 µM ([1]; Hek293T cells (non-leukemic control cell line), 10 μM): 67.9 ± 0.01% | viability at 24 h, 15 µM ([1]; Hek293T cells (non-leukemic control cell line), 15 μM): 59.6 ± 0.01% | viability at 24 h, 20 µM ([1]; Hek293T cells (non-leukemic control cell line), 20 μM): 55.7 ± 0.03% | viability at 24 h, 30 µM ([1]; Hek293T cells (non-leukemic control cell line), 30 μM): 53.5 ± 0.01% | viability at 24 h, 50 µM ([1]; Hek293T cells (non-leukemic control cell line), 50 μM): 48.5 ± 0.05% | viability at 24 h, 70 µM ([1]; Hek293T cells (non-leukemic control cell line), 70 μM): 42.9 ± 0.03% | viability at 24 h, 100 µM ([1]; Hek293T cells (non-leukemic control cell line), 100 μM): 42.7 ± 0.03% | viability at 24 h, 150 µM ([1]; Hek293T cells (non-leukemic control cell line), 150 μM): 42.5 ± 0.02% | viability at 24 h, 200 µM ([1]; Hek293T cells (non-leukemic control cell line), 200 μM): 42.1 ± 0.01% | viability at 24 h, 1 µM ([1]; Hek293T cells, 1 μM): 77.7 ± 0.03% | viability at 0.3 µM (Reh; 0.3 μM): 97.6 ± 0.03% | viability at 0.5 µM (Reh; 0.5 μM): 96.8 ± 0.03% | viability at 1 µM (Reh; 1 μM): 96.4 ± 0.01% | viability at 3 µM (Reh; 3 μM): 95.5 ± 0.02% | viability at 5 µM (Reh; 5 μM): 94.5 ± 0.03% | viability at 10 µM (Reh; 10 μM): 91.3 ± 0.05% | viability at 15 µM (Reh; 15 μM): 82.4 ± 0.02% | viability at 20 µM (Reh; 20 μM): 78.6 ± 0.02% | viability at 30 µM (Reh; 30 μM): 70.9 ± 0.03% | viability at 50 µM (Reh; 50 μM): 63.5 ± 0.04% | viability at 70 µM (Reh; 70 μM): 62.9 ± 0.03% | viability at 100 µM (Reh; 100 μM): 61.2 ± 0.01% | viability at 150 µM (Reh; 150 μM): 60.3 ± 0.03% | viability at 200 µM (Reh; 200 μM): 57 ± 0.02% | viability at 0.3 µM (Nalm-6; Nalm-6, 0.3 μM): 91 ± 0.08% | viability at 0.5 µM (Nalm-6; Nalm-6, 0.5 μM): 90.7 ± 0.06% | viability at 1 µM (Nalm-6; Nalm-6, 1 μM): 90.1 ± 0.09% | viability at 3 µM (Nalm-6; Nalm-6, 3 μM): 84.7 ± 0.09% | viability at 5 µM (Nalm-6; Nalm-6, 5 μM): 84.5 ± 0.05% | viability at 10 µM (Nalm-6; Nalm-6, 10 μM): 72.9 ± 0.03% | viability at 15 µM (Nalm-6; Nalm-6, 15 μM): 57.1 ± 0.02% | viability at 20 µM (Nalm-6; Nalm-6, 20 μM): 52.7 ± 0.01% | viability at 30 µM (Nalm-6; Nalm-6, 30 μM): 50.7 ± 0.03% | viability at 50 µM (Nalm-6; Nalm-6, 50 μM): 39.7 ± 0.01% | viability at 70 µM (Nalm-6; Nalm-6, 70 μM): 32.5 ± 0.05% | viability at 100 µM (Nalm-6; Nalm-6, 100 μM): 32.2 ± 0.02% | viability at 150 µM (Nalm-6; Nalm-6, 150 μM): 32.5 ± 0.01% | viability at 200 µM (Nalm-6; Nalm-6, 200 μM): 29%
